Measured values taken from patent US20190091227A1, “METHODS FOR TREATING ER+, HER2-, HRG+ BREAST CANCER USING COMBINATION THERAPIES COMPRISING AN ANTI-ERBB3 ANTIBODY” (Merrimack Pharmaceuticals, Inc., priority 2016, published 2019).
Like-named read-outs stand apart in the source and are kept apart here.

Key:
RB = RB phosphorylation (S807/811, S780) by Western blotting in MCF7 cells; assay type: cell-based, human; conditions: for RB phosphorylation / activation: MCF7, 20-24 hours, HRG 10 nM, fulvestrant 50 nM, palbociclib, abemaciclib 40 nM
Protocol: MCF7 cells were cultured as described above. […] Cellular lysates were prepared by lysis in MPER lysis buffer with the addition of protease and phosphatase inhibitors for 30 mins on ice. Cellular debris were removed by centrifugation at 10,000 rpm. Proteins were analyzed by Western blotting according to standard protocols. Protein loading was estimated by blotting with a β-actin antibody (β-Actin (13E5) Rabbit mAb #4970 Cell Signal) and RB activation was measured by detection of phosphorylation of RB (pRB) at pRb (S807/811): Cat #8516 pRb (S780): Cat #8180. Control antibodies as follows total AKT: Cat #9272 pAKT: Cat #4060.

MCF7 cells [1] = assay: Proliferation assay (Cell Titer-Glo), MCF7; assay type: cell-based, human; conditions: for proliferation: MCF7, single agent CDK4/6 inhibitor over a dose range
Protocol: (§1) Cells were seeded in duplicate or triplicate at 1500 to 5000 cells per well in 96 well plates, Opaque-walled 96-well plates with clear bottom: 96-well, Black/Clear, Flat bottom with lid, FALCON, 353219 in reduced serum conditions at either 3% v/v FBS or 1% v/v FBS. The day after plating recombinant HRGβ1 was added to yield a final concentration of 10 nM. Control wells received media without HRGβ1. Plates were then incubated for the indicated time period of 4 to 6 days at 37° C. in a humid atmosphere with 95% air, 5% CO2.
(§2) The day after plating recombinant HRGβ1 was added to yield a final concentration of 10 nM. Control wells received media without HRGβ1. […] Where indicated CDK inhibitors were added at 10 μM and dilutions were performed to generate a dose-response curve with 2 controls wells per row. Plates were then incubated for the indicated time period of 4 to 6 days at 37° C. in a humid atmosphere with 95% air, 5% CO2. Growth inhibition was calculated as a function of the relative inhibition or proliferation of cells treated with either growth factor or antagonists to cells treated with diluent only, over the same time period.
(§3) The day after plating recombinant HRGβ1 was added to yield a final concentration of 10 nM. Control wells received media without HRGβ1. […] Where indicated CDK inhibitors were added at 10 μM and dilutions were performed to generate a dose-response curve with 2 controls wells per row. Plates were then incubated for the indicated time period of 4 to 6 days at 37° C. in a humid atmosphere with 95% air, 5% CO2.
(§4) To measure proliferation, Cell Titer-Glo (CTG) assays were performed as per manufacturer's instructions. Specifically, reagent-1 and reagent-2 were equilibrated to room temperature at which point reagent-1 was added to reagent-2 and mixed by vortex. Test plates containing cells were equilibrated to room temperature for 30 minutes at which point an equal volume of CTG reagent was added to each well of the test plate, typically 100 μl to give a final volume of 200 μl per well. Each plate was then sealed with a foil plate sealer and mixed on an orbital shaker for 10 minutes to lyse cells and release cellular ATP. Following mixing plates were incubated at room temperature for 15 minutes to stabilize the luminescent signal. Data was collected by measuring relative luminescence on a Synergy H1 plate reader using the luminescence program. Growth was calculated and expressed as a relative value to the unstimulated control wells on each individual plate. Growth inhibition was calculated as a function of the relative inhibition of cells treated with antagonists to the growth of cells treated with diluent only, over the same time period. Data was then plotted using GraphPad Prism software.

[2] = cited from earlier work
MCF7 cells [3] = assay: Cell cycle / S-phase by EdU incorporation and flow cytometry in MCF7 cells; assay type: cell-based, human
Protocol: FIG. 13 is a representative FACS plot of the cell cycle distribution. The gate settings and percentage for cells in G0/G1, S and G2/M phases are indicated. DNA synthesis (S-phase) was determined by quantifying cells positive for both EdU incorporation and DNA content.

CDK2 = CDK2 activation (phospho-Thr160) by Western blotting in MCF7 cells; assay type: cell-based, human
Protocol: Cellular lysates were prepared by lysis in MPER lysis buffer with the addition of protease and phosphatase inhibitors for 30 minutes on ice. Cellular debris was removed by centrifugation at 10,000 rpm. Proteins were analyzed by Western blotting according to standard protocols.

T47D cells = assay: Proliferation assay (Cell Titer-Glo), T47D; assay type: cell-based, human
Protocol: as §1, §2, §3, §4

MCF-7Ca xenograft tumors = assay: MCF-7Ca xenograft model of post-menopausal ER+ breast cancer; assay type: in vivo, mice
Protocol: A model of post-menopausal ER+ breast cancer was used to determine the effect of blocking HRG-mediated ERB3 signaling and/or estrogen-mediated ER activation on tumor growth (FIG. 16). […] Changes in mean tumor volume (±SEM) were determined weekly by caliper measurement.

MCF7 cells [4] = assay: MCF7 orthotopic xenograft model of ER+ HER2- breast cancer; assay type: in vivo; conditions: SHO mice
Protocol: Female SHO mice (Charles River Laboratories) aged 8-10 weeks were implanted with 17-beta-estradiol pellets (0.72 mg/pellet) and 2 days later, injected with 100 μl of 5×10^6 MCF7 cells suspended in 50% DPBS/50% matrigel into the abdominal mammary fat pad. Tumor growth was monitored twice a week and tumor volumes were calculated following external caliper measurement according to the formula (tumor size=π/6×[length×width^2]). Once the average measured tumor volume had reached approximately 200 mm^3, mice were randomized into groups and treatment was administered. Overall, the average starting tumor volume per group was equivalent across all groups. Fulvestrant was dosed at 500 μg per mouse once per week via subcutaneous delivery. Palbociclib was dosed at 25 mg/kg, orally every day for 5 days, Monday through Friday.

ZR75-1 cells = assay: Proliferation assay (Cell Titer-Glo), ZR75-1; assay type: cell-based, human; conditions: ZR75-1, CDK4/6 inhibitor plus HRG
Protocol: as §2
The day after plating recombinant HRGβ1 was added to yield a final concentration of 10 nM. Control wells received media without HRGβ1. […]
To measure proliferation, Cell Titer-Glo (CTG) assays were performed as per manufacturer's instructions. […] Data was collected by measuring relative luminescence on a Synergy H1 plate reader using the luminescence program. Growth was calculated and expressed as a relative value to the unstimulated control wells on each individual plate. Growth inhibition was calculated as a function of the relative inhibition of cells treated with antagonists to the growth of cells treated with diluent only, over the same time period. […]

CCN1CCN(Cc2ccc(Nc3ncc(F)c(-c4cc(F)c5nc(C)n(C(C)C)c5c4)n3)nc2)CC1 [abemaciclib, 2-pyrimidinamine, N-(5-((4-ethyl-1-piperazinyl)methyl)-2-pyridinyl)-5-fluoro-4-(4-fluoro-2-methyl-1-(1-methylethyl)-1H-benzimidazol-6-yl), reference compound]
RB phosphorylation / activation (RB): decrease RB activation | proliferation (MCF7 cells [1]; 6 days): inhibited proliferation in a dose dependent manner

CC(C)(C#N)c1cc(Cn2cncn2)cc(C(C)(C)C#N)c1 [anastrozole, a,a,a′,a′-Tetramethyl-5-(1H-1,2,4-triazol-1-ylmethyl)-1,3-benzenediacetonitrile]
solubility ([2]; in acetone): freely soluble | solubility ([2]; in acetonitrile): very soluble | solubility ([2]; in ethanol): freely soluble | solubility ([2]; in methanol): freely soluble | solubility ([2]; in tetrahydrofuran): freely soluble

C[C@]12CC[C@@H]3c4ccc(O)cc4C[C@@H](CCCCCCCCC[S+]([O-])CCCC(F)(F)C(F)(F)F)[C@H]3[C@@H]1CC[C@@H]2O (stereo partly drawn) [fulvestrant, 7-alpha-[9-(4,4,5,5,5-pentafluoropentylsulphinyl)nonyl]estra-1,3,5-(10)-triene-3,17beta-diol, reference compound]
RB phosphorylation / activation (RB): inhibits RB activation | S-phase cell cycle progression (MCF7 cells [3]; MCF7, single agents in the absence of HRG): efficacious at inhibiting S-phase cell cycle progression | CDK2 activation (CDK2; MCF7, agent alone, 20-24 hours, HRG 10 nM, fulvestrant, palbociclib, abemaciclib 100 nM): inhibited CDK2 activation | fulvestrant activity on proliferation (T47D cells; HRG present in addition to estradiol): significantly decreased | inhibition of estradiol induced proliferation (T47D cells; fulvestrant 100 nM, 6 days): effective at inhibiting estradiol induced proliferation | degree of inhibition of proliferation (MCF7 cells [1]; MCF7, CDK4/6 inhibitor plus fulvestrant (50 nM)): greater than the activity of the CDK4/6 inhibitor alone | fulvestrant activity on proliferation (MCF7 cells [1]; MCF7, HRG present in addition to estradiol): significantly decreased | inhibition of estradiol induced proliferation (MCF7 cells [1]; MCF7, fulvestrant 100 nM, 6 days): effective at inhibiting estradiol induced proliferation

N#Cc1ccc(C(c2ccc(C#N)cc2)n2cncn2)cc1 [letrozole, 4,4′-(1H-1,2,4-Triazol-1-ylmethylene)dibenzonitrile]
solubility ([2]; in dichloromethane): freely soluble | solubility ([2]; in ethanol): slightly soluble | solubility ([2]; in water): practically insoluble | tumor response (MCF-7Ca xenograft tumors; letrozole 10 μg/mouse/day x 5 days/week SQ): initially responded | start of development of resistance (MCF-7Ca xenograft tumors; letrozole monotherapy, time of treatment): 7-8 weeks

CN(C)C(=O)c1cc2cnc(Nc3ccc(N4CCNCC4)cn3)nc2n1C1CCCC1 [ribociclib, 7-cyclopentyl-N,N-dimethyl-2-((5-(piperazin-1-yl)pyridin-2-yl)amino)-7H-pyrrolo[2,3-d]pyrimidine-6-carboxamide, reference compound]
proliferation (MCF7 cells [1]; 6 days): inhibited proliferation in a dose dependent manner

B1: seribantumab: human monoclonal anti-ErbB3 IgG2; heavy and light chains SEQ ID NO: 7 and 8 (antibody)
heavy: EVQLLESGGGLVQPGGSLRLSCAASGFTFSHYVMAWVRQAPGKGLEWVSSISSSGGWTLYADSVKGRFTISRDNSKNTLYLQMNSLRAEDTAVYYCTRGLKMATIFDYWGQGTLVTVSSASTKGPSVFPLAPCSRSTSESTAALGCLVKDYFPEPVTVSWNSGALTSGVHTFPAVLQSSGLYSLSSVVTVPSSNFGTQTYTCNVDHKPSNTKVDKTVERKCCVECPPCPAPPVAGPSVFLFPPKPKDTLMISRTPEVTCVVVDVSHEDPEVQFNWYVDGVEVHNAKTKPREEQFNSTFRVVSVLTVVHQDWLNGKEYKCKVSNKGLPAPIEKTISKTKGQPREPQVYTLPPSREEMTKNQVSLTCLVKGFYPSDIAVEWESNGQPENNYKTTPPMLDSDGSFFLYSKLTVDKSRWQQGNVFSCSVMHEALHNHYTQKSLSLSPGK
light: QSALTQPASVSGSPGQSITISCTGTSSDVGSYNVVSWYQQHPGKAPKLIIYEVSQRPSGVSNRFSGSKSGNTASLTISGLQTEDEADYYCCSYAGSSIFVIFGGGTKVTVLGQPKAAPSVTLFPPSSEELQANKATLVCLVSDFYPGAVTVAWKADGSPVKVGVETTKPSKQSNNKYAASSYLSLTPEQWKSHRSYSCRVTHEGSTVEKTVAPAECS
resistance to letrozole (MCF-7Ca xenograft tumors; co-treated with letrozole and seribantumab): substantially delayed | tumor growth (MCF-7Ca xenograft tumors; co-treated with letrozole and seribantumab (750 μg/mouse IP)): tumor growth was inhibited | tumor growth of letrozole-resistant tumors (MCF-7Ca xenograft tumors; re-randomized at week 14, letrozole and seribantumab compared to letrozole alone): significantly decreased tumor growth | effect of seribantumab on activity of fulvestrant, palbociclib and abemaciclib on RB (RB; MCF7, seribantumab 1 uM, with HRG, alone or in combination): restored the activity | growth inhibition, addition of seribantumab to the combination of palbociclib and fulvestrant (MCF7 cells [4]): increases the growth inhibition | antitumor efficacy, addition of seribantumab to fulvestrant (MCF7 cells [4]; seribantumab 600 μg twice per week IP, fulvestrant 500 μg once per week SC): increased the antitumor efficacy | antitumor efficacy, addition of seribantumab to palbociclib (MCF7 cells [4]; seribantumab 600 μg twice per week IP, palbociclib 25 mg/kg orally): increased the antitumor efficacy | effect of seribantumab on cell cycle inhibitory activity of fulvestrant or palbociclib (MCF7 cells [3]; MCF7, in the presence of HRG): restores this activity | effect of seribantumab on cell cycle inhibitory activity of the palbociclib-fulvestrant combination (MCF7 cells [3]; MCF7, in the presence of HRG): restored this activity | effect of adding seribantumab on CDK4/6 inhibitor activity (ZR75-1 cells): restored sensitivity | effect on HRG-induced CDK2 activation (CDK2; MCF7, in the presence of fulvestrant or CDK4/6 inhibitors palbociclib and abemaciclib): blocked HRG mediated activation of CDK2 | effect on HRG-induced CDK2 activation (CDK2; MCF7, seribantumab 1 uM, HRG 10 nM): can block the activating effect of HRG on CDK2 activation | effect of adding seribantumab on CDK4/6 inhibitor activity (MCF7 cells [1]; MCF7, CDK4/6 inhibitor plus HRG 10 nM): restored CDK inhibitory activity | effect of adding seribantumab on the CDK4/6 inhibitor-fulvestrant combination (MCF7 cells [1]; MCF7, with HRG): restored sensitivity | effect of adding seribantumab on proliferation (MCF7 cells [1]; MCF7 treated with fulvestrant, estradiol and HRG): restoration of the activity of fulvestrant
